The values below come from ChEMBL document CHEMBL3046083, “Synthesis, characterization and antimicrobial evaluation of novel derivatives of isoniazid” (2012).

Values after ≈ are worked out from the molar mass of the structure shown.

Holding throughout (assay type): functional
For assay [1], the system named is Escherichia coli. The experiment in a line: Antimicrobial activity against Escherichia coli ATCC 25922 after 24 hr by broth dilution method. To be noted: ATCC 25922, 24 h. A general note: Broth dilution looks for growth in wells or tubes with falling amounts of substance.
The test system of assay [2] is Bacillus subtilis. In words: Antimicrobial activity against Bacillus subtilis ATCC […] at 50 ug/ml after 24 to 48 hr by agar diffusion method. To be noted: read-out: DIZ. (A growth-free zone around the sample is the usual read-out of agar diffusion tests.)
Assay [3] deals with Staphylococcus aureus. In words: Antimicrobial activity against Staphylococcus aureus ATCC 29213 at 50 ug/ml after 24 to 48 hr by agar diffusion method. To be noted: read-out: DIZ.
Assay [4] relates to Escherichia coli. The experiment in a line: Antimicrobial activity against Escherichia coli ATCC 25922 at 50 ug/ml after 24 to 48 hr by agar diffusion method. The settings on record: read-out: DIZ.
Assay [5] has as its system Staphylococcus aureus. The experiment in a line: Antimicrobial activity against Staphylococcus aureus ATCC 29213 after 24 hr by broth dilution method. The settings on record: ATCC 29213, 24 h.
Assay [6] deals with Pseudomonas aeruginosa. In words: Antimicrobial activity against Pseudomonas aeruginosa ATCC […] after 24 hr by broth dilution method.
Assay [7] has as its system Pseudomonas aeruginosa. The experiment in a line: Antimicrobial activity against Pseudomonas aeruginosa ATCC […] at 50 ug/ml after 24 to 48 hr by agar diffusion method. To be noted: read-out: DIZ.
Assay [8] relates to Bacillus subtilis. The experiment in a line: Antimicrobial activity against Bacillus subtilis ATCC […] after 24 hr by broth dilution method.
In assay [9] the test system is Escherichia coli. The experiment in a line: Antimicrobial activity against Escherichia coli ATCC 25922 at 100 ug/ml after 24 to 48 hr by agar diffusion method. To be noted: read-out: DIZ.
For assay [10], the system named is Staphylococcus aureus. In words: Antimicrobial activity against Staphylococcus aureus ATCC 29213 at 100 ug/ml after 24 to 48 hr by agar diffusion method. To be noted: read-out: DIZ.
The test system of assay [11] is Nakaseomyces glabratus. In words: Antimicrobial activity against Candida glabrata ATCC 10233 by broth dilution method.
Assay [12] has as its system Nakaseomyces glabratus. The experiment in a line: Antimicrobial activity against Candida glabrata ATCC 10233 at 100 ug/ml after 24 to 48 hr by agar diffusion method. To be noted: read-out: DIZ.
Assay [13] relates to Pseudomonas aeruginosa. In words: Antimicrobial activity against Pseudomonas aeruginosa ATCC […] at 100 ug/ml after 24 to 48 hr by agar diffusion method. The settings on record: read-out: DIZ.
Assay [14] has as its system Bacillus subtilis. In words: Antimicrobial activity against Bacillus subtilis ATCC […] at 100 ug/ml after 24 to 48 hr by agar diffusion method. To be noted: read-out: DIZ.
Assay [15] has as its system Candida albicans. In words: Antimicrobial activity against Candida albicans ATCC 10231 by broth dilution method.
The test system of assay [16] is Candida albicans. In words: Antimicrobial activity against Candida albicans ATCC 10231 at 100 ug/ml after 24 to 48 hr by agar diffusion method. The settings on record: read-out: DIZ.

In general, MIC refers to the lowest concentration found to suppress growth. A lower MIC goes with inhibition by little substance. As usually defined, the MIC50 is the lowest concentration that inhibits either 50% of growth or 50% of the strains tested, depending on the study. High values mean weaker potency, low ones greater potency. Consider `CC1(C)S[C@@H]2[C@H](NC(=O)[C@H](N)c3ccc(O)cc3)C(=O)N2[C@H]1C(=O)O` [AMOXICILLIN], for which the MIC was 3.12 µg/mL (≈ 8.54 µM) in assay [1], 3.12 µg/mL (≈ 8.54 µM) in [5], 6.25 µg/mL (≈ 17.1 µM) in assay [6] and 6.25 µg/mL (≈ 17.1 µM) in assay [8]. For the same compound, the MIC50 in [1] was 1.6 µg/mL (≈ 4.38 µM); in assay [5] it was 1.62 µg/mL (≈ 4.43 µM); in assay [6] it was 3.2 µg/mL (≈ 8.76 µM); in [8] it was 3.2 µg/mL (≈ 8.76 µM). The zone of inhibition at 50 µg/mL is 25 mm in [2], 30 mm in [3], 30 mm in assay [4] and 21 mm in [7].

For orientation: MFC means the smallest concentration meeting the test's criterion for killing the fungus. In the case of `CCOc1c(/C=N\NC(=O)c2ccncc2)cccc1CN(c1ccccc1)c1ccccc1`, the zone of inhibition at 100 µg/mL in assay [9] came to 32 mm; in assay [10], 31 mm; in [12], 22 mm; in assay [13], 22 mm; in [14] it was 26 mm; in assay [16] it was 21 mm. Further, the minimal inhibitory concentration (MIC) in assay [1] was 6.25 µg/mL (≈ 13.9 µM); in [11], 12.5 µg/mL (≈ 27.7 µM); in assay [5], 6.25 µg/mL (≈ 13.9 µM); in [6] it was 12.5 µg/mL (≈ 27.7 µM); in [15] it was 12.5 µg/mL (≈ 27.7 µM); in assay [8] it was 12.5 µg/mL (≈ 27.7 µM). Besides, the MIC50 in assay [1] stood at 3.2 µg/mL (≈ 7.1 µM); in assay [11], 12.8 µg/mL (≈ 28.4 µM); in assay [5] it was 3.2 µg/mL (≈ 7.1 µM); in assay [6] it was 6.4 µg/mL (≈ 14.2 µM); in [15], 6.4 µg/mL (≈ 14.2 µM); in [8] it was 6.4 µg/mL (≈ 14.2 µM). Further, the results for the MFC in assay [11] and in assay [15] were 50 µg/mL (≈ 111 µM) and 25 µg/mL (≈ 55.5 µM), respectively.
